Reference: PMC11364541 (Nature Communications, 2024)

Molecular target: T1, SLC13A3 (Homo sapiens, UniProt Q8WWT9)
T1 sequence (Q8WWT9 1-602): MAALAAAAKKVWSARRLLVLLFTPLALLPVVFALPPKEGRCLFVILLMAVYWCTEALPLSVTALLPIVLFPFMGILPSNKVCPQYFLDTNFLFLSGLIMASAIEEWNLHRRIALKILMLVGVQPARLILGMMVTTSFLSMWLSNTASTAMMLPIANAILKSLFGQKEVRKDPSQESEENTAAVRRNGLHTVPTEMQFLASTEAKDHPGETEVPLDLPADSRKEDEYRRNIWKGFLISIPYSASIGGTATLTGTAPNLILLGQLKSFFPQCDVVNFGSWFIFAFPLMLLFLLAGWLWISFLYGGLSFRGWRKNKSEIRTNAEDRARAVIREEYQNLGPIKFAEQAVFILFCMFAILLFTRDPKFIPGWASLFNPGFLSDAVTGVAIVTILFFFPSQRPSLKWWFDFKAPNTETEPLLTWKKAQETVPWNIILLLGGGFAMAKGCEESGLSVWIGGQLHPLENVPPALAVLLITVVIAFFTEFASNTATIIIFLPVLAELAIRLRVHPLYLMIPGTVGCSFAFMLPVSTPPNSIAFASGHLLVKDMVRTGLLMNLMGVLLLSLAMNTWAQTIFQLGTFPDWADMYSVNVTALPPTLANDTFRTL
Assay: inhibition of […]-succinate uptake in SLC13A3-transfected HEK293 cells
Format: cell-based

- IC50: 1.89 mM
Structure (SMILES): N[C@@H](CCC(=O)N[C@@H](CS)C(=O)NCC(=O)O)C(=O)O [GSH, glutathione]
